{"source": "patent US20110212106A1", "about": "“HIV-1 NE[…] USES THEREOF” (priority 2010, published 2011)", "key": {"[1]": {"system": "HIV-1 pseudoviruses in HOS-CD4-CCR5 cells", "details": "for IC50: Table 7, HOS", "description": "To measure the neutralization activity of the isolated mAbs, luciferase-encoding virions pseudotyped with the desired HIV-1 Env proteins were used in a single-cycle infectivity assay, as previously described (Gorny M K, et al. (2002) J Virol 76: 9035-9045). Briefly, appropriate dilutions of the virion-containing culture supernatants were pre-incubated at 37° C. for 1 h with mAbs at various concentrations. The virus-mAb mixtures were added to HOS-CD4-CCR5 cells and incubated for 3 days at 37° C. A similar protocol was used for supernatants screening using TZM-bl cells (Li M, et al. (2006) J Virol 80: 11776-11790). The cells were then lysed with Britelite reagent (Perkin-Elmer) and the relative light units in the cell lysates were determined on a luminometer microplate reader (Veritas, Turner Biosystems). The 50% inhibitory dose (IC50) was defined as the sample concentration at which relative luminescence units were reduced 50% compared to virus control wells.\nThe neutralizing activity of the mAbs was measured using 20 pseudotyped HIV-1 primary isolate envs characterized by different sensitivity to neutralization (Li M, et al. (2005) J Virol 79: 10108-10125; Li M, et al. (2006) J Virol 80: 11776-11790). The mAbs were tested at a fixed concentration (100 μg/ml) in the luciferase based neutralization assay using HOS-CD4.R5 as target cells."}, "[2]": {"system": "HIV-1 pseudoviruses in TZM-bl cells", "details": "for IC50: Table 7, TZMbl"}, "gp120 binding to sCD4": {"system": "gp120 binding to sCD4", "details": "inhibition of sCD4 binding", "procedure": "Shown is mean±SD of triplicates.\nThe ability of mAbs to inhibit binding of sCD4 to gp120 or gp140 was evaluated by ELISA. Serial dilutions of mAbs were pre-incubated with gp120 (or gp140) and added to plates pre-coated with sCD4. After 1 h plates were washed and incubated with sheep polyclonal antibody D7324 (Aalto Bio-Reagents) followed by washing, incubation with AP-conjugated rabbit anti-sheep IgG antibody (Abcam, Cambridge, UK), extensive washing and detection using p-NPP (Sigma) as substrate."}, "[3]": {"system": "primary replication competent HIV-1 isolates"}}, "note": "Values joined by “and” are separate entries in the source; they are usually repeats but may differ in a detail not shown here. Identical values can stand only once. Like-named read-outs stand apart in the source and are kept apart here."}
{"substance": "HJ16: human mAb from clade C donor, CD4 binding site proximal epitope; VH SEQ ID NO: 13, VL SEQ ID NO: 14", "values": [{"measurement": "Neutralization HOS (number of isolates neutralized)", "setting": "[1]; HOS-based assay, isolates neutralized/isolates tested", "result": "10/20"}, {"measurement": "pseudoviruses neutralized out of the 20 pseudoviruses", "setting": "[1]; mAb at fixed concentration 100 μg/ml", "result": 10}, {"measurement": "Percentage of HIV-1 isolates neutralized", "setting": "[2]; All (92)", "result": 36, "unit": "%"}, {"measurement": "Neutralization TZM-bl (number of isolates neutralized)", "setting": "[2]; TZM-bl based assay, isolates neutralized/isolates tested", "result": "33/92"}, {"measurement": "Percentage of HIV-1 isolates neutralized", "setting": "[2]; Tier 1 (10)", "result": 10, "unit": "%"}, {"measurement": "Percentage of HIV-1 isolates neutralized", "setting": "[2]; Tier 1 + Tier 2, Clade A (8)", "result": 25, "unit": "%"}, {"measurement": "Percentage of HIV-1 isolates neutralized", "setting": "[2]; Tier 1 + Tier 2, Clade AD (1)", "result": 100, "unit": "%"}, {"measurement": "Percentage of HIV-1 isolates neutralized", "setting": "[2]; Tier 1 + Tier 2, Clade AG (16)", "result": 50, "unit": "%"}, {"measurement": "Percentage of HIV-1 isolates neutralized", "setting": "[2]; Tier 1 + Tier 2, Clade B (29)", "result": 34, "unit": "%"}, {"measurement": "Percentage of HIV-1 isolates neutralized", "setting": "[2]; Tier 1 + Tier 2, Clade BC (11)", "result": 45, "unit": "%"}, {"measurement": "Percentage of HIV-1 isolates neutralized", "setting": "[2]; Tier 1 + Tier 2, Clade C (26)", "result": 27, "unit": "%"}, {"measurement": "Percentage of HIV-1 isolates neutralized", "setting": "[2]; Tier 1 + Tier 2, Clade G (1)", "result": 0, "unit": "%"}, {"measurement": "Percentage of HIV-1 isolates neutralized", "setting": "[2]; Tier 2 (82)", "result": 39, "unit": "%"}, {"measurement": "Percentage of HIV-1 isolates neutralized", "setting": "[2]; Tier 2, Clade A (5)", "result": 20, "unit": "%"}, {"measurement": "Percentage of HIV-1 isolates neutralized", "setting": "[2]; Tier 2, Clade AD (1)", "result": 100, "unit": "%"}, {"measurement": "Percentage of HIV-1 isolates neutralized", "setting": "[2]; Tier 2, Clade AG (16)", "result": 50, "unit": "%"}, {"measurement": "Percentage of HIV-1 isolates neutralized", "setting": "[2]; Tier 2, Clade B (24)", "result": 42, "unit": "%"}, {"measurement": "Percentage of HIV-1 isolates neutralized", "setting": "[2]; Tier 2, Clade BC (11)", "result": 45, "unit": "%"}, {"measurement": "Percentage of HIV-1 isolates neutralized", "setting": "[2]; Tier 2, Clade C (24)", "result": 29, "unit": "%"}, {"measurement": "Percentage of HIV-1 isolates neutralized", "setting": "[2]; Tier 2, Clade G (1)", "result": 0, "unit": "%"}, {"measurement": "Tier-2 isolates neutralized by HJ16 that were not neutralized by b12", "setting": "[2]; of 32 neutralized", "result": "22/32"}, {"measurement": "Tier-1 viruses neutralized", "setting": "[2]; panel of 10 Tier-1 isolates", "result": "1 out of 10 and 1/10"}, {"measurement": "Tier-2 pseudoviruses neutralized", "setting": "[2]; panel of 82 Tier-2 isolates", "result": "32/82"}, {"measurement": "plateau of heterologous inhibition in cross-competition of HJ16 and b12", "setting": "gp120; binding to immobilized gp120", "result": "approximately 80%"}, {"measurement": "Cross-competition with: 2G12", "setting": "gp120; inhibition of biotinylated mAb 2G12 binding to immobilized gp120", "result": "− (−, <50% inhibition)"}, {"measurement": "Cross-competition with: HGA9", "setting": "gp120; inhibition of biotinylated mAb HGA9 binding to immobilized gp120", "result": "− (−, <50% inhibition)"}, {"measurement": "Cross-competition with: HJ16", "setting": "gp120; inhibition of biotinylated mAb HJ16 binding to immobilized gp120", "result": "+ (+,90-100% inhibition)"}, {"measurement": "Cross-competition with: sCD4", "setting": "gp120 binding to sCD4", "result": "+ (+,90-100% inhibition)"}]}
{"substance": "enfuvirtide", "values": [{"measurement": "IC50", "setting": "[1]; 96ZM651.2, clade C", "result": 0.6, "unit": "nM"}, {"measurement": "IC50", "setting": "[1]; 263-8, clade AG", "result": 0.04, "unit": "nM"}, {"measurement": "IC50", "setting": "[1]; AC10.0.29, clade B", "result": 1.2, "unit": "nM"}, {"measurement": "IC50", "setting": "[1]; BaL.26, clade B", "result": 1.4, "unit": "nM"}, {"measurement": "IC50", "setting": "[1]; CAP210.2.00.E8, clade C", "result": 6, "unit": "nM"}, {"measurement": "IC50", "setting": "[1]; CH064.20, clade BC", "result": 0.7, "unit": "nM"}, {"measurement": "IC50", "setting": "[1]; CH110.2, clade BC", "result": 0.335, "unit": "nM"}, {"measurement": "IC50", "setting": "[1]; CH181.12, clade BC", "result": 1.8, "unit": "nM"}, {"measurement": "IC50", "setting": "[1]; Du151.2, clade C", "result": 0.6, "unit": "nM"}, {"measurement": "IC50", "setting": "[1]; JR-FL, clade B", "result": 1.9, "unit": "nM"}, {"measurement": "IC50", "setting": "[1]; MW965.26, clade C", "result": 0.6, "unit": "nM"}, {"measurement": "IC50", "setting": "[1]; Q168.a2, clade AD", "result": 5.7, "unit": "nM"}, {"measurement": "IC50", "setting": "[1]; Q461.e2, clade A", "result": 1.6, "unit": "nM"}, {"measurement": "IC50", "setting": "[1]; Q769.d22, clade A", "result": 1.7, "unit": "nM"}, {"measurement": "IC50", "setting": "[1]; RHPA4259.7, clade B", "result": 1.9, "unit": "nM"}, {"measurement": "IC50", "setting": "[1]; SF162, clade B", "result": 6.8, "unit": "nM"}, {"measurement": "IC50", "setting": "[1]; SS1196.1, clade B", "result": 0.9, "unit": "nM"}, {"measurement": "IC50", "setting": "[1]; T257-31, clade AG", "result": 2.76, "unit": "nM"}, {"measurement": "IC50", "setting": "[1]; ZM53M.PB12, clade C", "result": 6.1, "unit": "nM"}, {"measurement": "IC50", "setting": "[1]; ZM214M.PL15, clade C", "result": 4.42, "unit": "nM"}, {"measurement": "IC50", "setting": "[2]; 96ZM651.2, clade C", "result": 8.9, "unit": "nM"}, {"measurement": "IC50", "setting": "[2]; 263-8, clade AG", "result": "< 2.23", "unit": "nM"}, {"measurement": "IC50", "setting": "[2]; AC10.0.29, clade B", "result": 6.68, "unit": "nM"}, {"measurement": "IC50", "setting": "[2]; BaL.26, clade B", "result": 6.68, "unit": "nM"}, {"measurement": "IC50", "setting": "[2]; CAP210.2.00.E8, clade C", "result": 13.4, "unit": "nM"}, {"measurement": "IC50", "setting": "[2]; CH064.20, clade BC", "result": "< 2.23", "unit": "nM"}, {"measurement": "IC50", "setting": "[2]; CH110.2, clade BC", "result": "< 2.23", "unit": "nM"}, {"measurement": "IC50", "setting": "[2]; CH181.12, clade BC", "result": "< 2.23", "unit": "nM"}, {"measurement": "IC50", "setting": "[2]; Du151.2, clade C", "result": "< 2.23", "unit": "nM"}, {"measurement": "IC50", "setting": "[2]; Q168.a2, clade AD", "result": 8.9, "unit": "nM"}, {"measurement": "IC50", "setting": "[2]; Q461.e2, clade A", "result": 6.68, "unit": "nM"}, {"measurement": "IC50", "setting": "[2]; Q769.d22, clade A", "result": 20, "unit": "nM"}, {"measurement": "IC50", "setting": "[2]; RHPA4259.7, clade B", "result": 8.9, "unit": "nM"}, {"measurement": "IC50", "setting": "[2]; SF162, clade B", "result": 20, "unit": "nM"}, {"measurement": "IC50", "setting": "[2]; SS1196.1, clade B", "result": 4.45, "unit": "nM"}, {"measurement": "IC50", "setting": "[2]; T257-31, clade AG", "result": "< 2.23", "unit": "nM"}, {"measurement": "IC50", "setting": "[2]; ZM53M.PB12, clade C", "result": "< 2.23", "unit": "nM"}, {"measurement": "IC50", "setting": "[2]; ZM214M.PL15, clade C", "result": 17.8, "unit": "nM"}, {"measurement": "IC50", "setting": "[3]; 92BR025, clade C", "result": "< 16", "unit": "nM"}, {"measurement": "IC90", "setting": "[3]; 92BR025, clade C", "result": 29, "unit": "nM"}, {"measurement": "IC50", "setting": "[3]; 92RW009, clade A", "result": "< 16", "unit": "nM"}, {"measurement": "IC90", "setting": "[3]; 92RW009, clade A", "result": 44, "unit": "nM"}, {"measurement": "IC50", "setting": "[3]; 92UG024, clade D", "result": 16, "unit": "nM"}, {"measurement": "IC90", "setting": "[3]; 92UG024, clade D", "result": 48, "unit": "nM"}, {"measurement": "IC50", "setting": "[3]; J213, clade B", "result": 35, "unit": "nM"}, {"measurement": "IC90", "setting": "[3]; J213, clade B", "result": 192, "unit": "nM"}, {"measurement": "IC50", "setting": "[3]; MN(P), clade B", "result": 39, "unit": "nM"}, {"measurement": "IC90", "setting": "[3]; MN(P), clade B", "result": 63, "unit": "nM"}, {"measurement": "IC50", "setting": "[3]; QH0692, clade B", "result": 78, "unit": "nM"}, {"measurement": "IC90", "setting": "[3]; QH0692, clade B", "result": 207, "unit": "nM"}, {"measurement": "IC50", "setting": "[3]; VI 191, clade A", "result": 32, "unit": "nM"}, {"measurement": "IC90", "setting": "[3]; VI 191, clade A", "result": 56, "unit": "nM"}]}
